Reference: BindingDB's records for doi:10.7270/Q2JQ0ZH4 (Burnham Center For Chemical Genomics, 2011)

Molecular target: T1, Mitochondrial import inner membrane translocase subunit TIM10 (Saccharomyces cerevisiae (strain ATCC 204508 / S288c), UniProt P87108)
T1 sequence (P87108 whole entry): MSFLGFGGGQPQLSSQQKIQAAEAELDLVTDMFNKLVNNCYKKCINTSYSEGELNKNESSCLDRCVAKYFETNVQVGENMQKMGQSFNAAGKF
Experiment: tim10-1 yeast luminescent signal inhibition – luminescence, S. cerevisiae, uHTS hits, counter-screen for tim23-1 inhibitor project, dose response (AID 504657)

O=C1c2ccccc2-c2n[nH]c3cccc1c23
IC50: > 100 µM

Cc1ccc2nc(-n3c(O)c[nH]c3=S)sc2c1
IC50: > 100 µM

COC(=N)C(C#N)N=Cc1ccccc1Cl (stereo not given) [(E)-3-amino-2-[(2-chlorophenyl)methylideneamino]-3-methoxy-2-propenenitrile]
IC50: > 100 µM

C(=CN=Nc1nc2ccccc2[nH]1)Cc1ccccc1 [MLS000390936]
IC50: > 100 µM

Oc1ccccc1C1=NNC(c2ccccc2)S1 (stereo not given) [MLS001212798]
IC50: > 100 µM
